Laboratory results reported in patent publication US20040105860A1, “Cell modulation using a cytoskeletal protein” (priority 2002, published 2004).
Blank lines part the entries; values can stand above or below the molecule they belong to.

Key:
[1] = tested on: ezrin phosphorylation; experiment: Western blot for phospho-ezrin in EC lysates; type: cell-based, Bovine; settings: Y27632 20 μM, all experimental time points
[2] = tested on: cyclin A mRNA; experiment: Ribonuclease protection assay (RPA) of cyclin A mRNA expression in EC; type: cell-based, Bovine; settings: pre-treatment of EC with Y27632
Procedure: FIGS. 1A-D are explained in more detail as follows. Synchronized ECs were serum stimulated in the presence or absence of TNF for indicated times. Total cellular RNA was isolated and was analyzed by RPA for cyclin A, cyclin B and cyclin D1 expression. A representative autoradiograph is shown (FIG. 1A). mRNA expression of cyclins was corrected to that of GAPDH and quantified by densitometric analysis (FIGS. 1B-D). Data represent average of 3 similar experiments.
FIGS. 12A-C are explained in more detail as follows. (FIG. 12A) Representative PCR gel photograph showing amplification of 200 bp cyclin A promoter emcompassing CHR elements from ant-ezrin antibody immunoprecipitated chromatin. (FIG. 12B) BAECs co-transfected with cyclin A promoter-reporter construct and either wt or dnEzrin constructs and cultured in presence or absence of TNF for 24 h before were analyzed for luciferase activity. Bar graph represents average promoter activity from 3 similar experiments (*p<0.01). (FIG. 12C) Total RNA from empty vector wt or dnEzrin transfected cells under control or TNF-treatment conditions was evaluated for cyclin A mRNA expression by ribonuclease protection assays. Representative autoradiograph is shown.
3. […]

[3] = tested on: EC proliferation; experiment: Thymidine uptake assay, EC proliferation; type: cell-based, Bovine
Procedure: Having documented TNF-induced nuclear translocation and the ability of ezrin to bind to cyclin A CHR elements, the functional consequences of TNF-mediated ezrin modulation in EC was determined. To evaluate the effect of ezrin over-expression in the presence of TNF on cell proliferation, EC were transiently transfected with either wtEzrin or dnEzrin expression vectors. Cells were treated or not with TNF and BrdU (50 μg/mL) was added to all cultures for 6 hours. […] Tritiated thymidine uptake assays were performed as an independent measure of cell proliferation in similarly transfected and treated cells and corroborated the findings of BrdU incorporation (FIG. 11C).
FIGS. 11A-E are explained in more detail as follows. Quiescent BAECs transiently transfected with empty vector, wild type and dominant negative ezrin were cultured in the absence (control) or presence of 20 ng/mL TNF for 24 hrs. Cells were labeled with BrdU (50 μg/mL) for last 6 hrs of culture. […] BrdU positive cells were counted in at least 6 different visual fields. […]
To provide further evidence that the improvement in EC function attained by inhibition of ROCK-2 was mediated by ezrin, we performed rescue experiments. EC transiently transfected with wtEzrin and treated with TNF were co-treated with increasing doses of Y27632 and cell proliferation was determined by thymidine incorporation.

[4] = target: RhoA kinase (ROCK-2) (Bos taurus, UniProt Q28021); experiment: Western blot for ROCK-2 in EC lysates; type: cell-based, Bovine; settings: co-treatment with Y27632 20 micromolar at the time of TNF exposure
[5] = tested on: CDE-CHR elements of the cyclin A promoter; experiment: EMSA of EC nuclear extracts with CDE-CHR / CHR oligonucleotides; type: cell-based, Bovine
[6] = tested on: cyclin A CHR elements; experiment: South-western analysis and UV cross-linking of nuclear proteins with CDE-mCHR or mCDE-CHR probes; type: cell-based, Bovine; settings: cycloheximide 5 μg/mL along with TNF
Source text: Nuclear proteins from asynchronously growing BAEC with or without TNF were probed with ^32P-labeled CDE-mCHR or mCDE-CHR oligonucleotides.
To confirm that 84 kDa protein in TNF treated extracts identified in FIGS. 8A-B, does bind to CHR elements, we performed UV cross-linking experiments. EMSA reactions were assembled as before followed by UV cross-linking. The reactions were then boiled in SDS loading buffer and resolved on 12% SDS-PAGE. In reactions probed with CDE-mCHR the 35-kDa protein seen before was observed again (FIGS. 8C-D). In reactions probed with mCDE-CHR probe, the previously identified (FIGS. 8A-B) 39-kDa protein was found cross-linked to oligonucleotide. Similarly, the 84-kDa protein from TNF treated extract cross-linked with mCDE-CHR probe, further confirming the southwestern results.
FIGS. 8A-E are explained in more detail as follows. FIGS. 8A-B. Representative autoradiograph of south-western analysis. Nuclear proteins from asynchronously growing EC with or with out TNF treatment were size fractionated on a 12% SDS-PAGE gel, transferred to PVDF membrane and renatured. Membranes were then incubated with radio-labeled CDE-mCHR or mCDE-CHR oligonucleotide. Membranes were washed, air dried and autoradiographed. […]

[7] = tested on: CHR oligonucleotides (cyclin A promoter); experiment: EMSA of recombinant protein with CHR oligonucleotides; type: binding; settings: recombinant protein 1 μg
Source text: Nuclear extracts from control and TNF-treated EC were mixed with biotin-labeled CHR oligonucleotides and the bound proteins were captured on avidin-agarose beads. Eluted proteins from beads were subjected to Western blot analysis for ezrin. […] Specificity of CHR-ezrin binding was further confirmed by EMSA assays using recombinant-ezrin protein (GST-ezrin). […] We next evaluated the effect of TNF-induced ezrin binding to cyclin A-CHR by dominant-negative ezrin over-expression. EC were transiently transfected with wild-type (wtEzrin) and dominant negative (dnEzrin) ezrin expression vector. […] That TNF-induced modulation of ezrin up-regulates CHR-binding activity was further evident from ezrin immunodepletion experiments. Endogenous ezrin was immunodepleted from control and TNF-treated nuclear extracts by treating extracts with anti-ezrin antibodies over 5 rounds. Immunodepleted extracts were then analyzed by EMSA for CHR-binding activity.
FIGS. 9A-D are explained in more detail as follows. […] Eluted proteins from beads were analyzed for ezrin protein in western blots. […] (FIG. 9C) Nuclear extracts from control and TNF-treated BAECs, transfected with wild type or dominant negative ezrin, were evaluated CHR binding activity in EMSAs. […] Depleted extracts alone or depleted extracts from TNF treated cells reconstituted with GST-ezrin were then analyzed for CHR binding activity. […]

Chain of RhoA kinase (ROCK-2) (Q28021 whole entry): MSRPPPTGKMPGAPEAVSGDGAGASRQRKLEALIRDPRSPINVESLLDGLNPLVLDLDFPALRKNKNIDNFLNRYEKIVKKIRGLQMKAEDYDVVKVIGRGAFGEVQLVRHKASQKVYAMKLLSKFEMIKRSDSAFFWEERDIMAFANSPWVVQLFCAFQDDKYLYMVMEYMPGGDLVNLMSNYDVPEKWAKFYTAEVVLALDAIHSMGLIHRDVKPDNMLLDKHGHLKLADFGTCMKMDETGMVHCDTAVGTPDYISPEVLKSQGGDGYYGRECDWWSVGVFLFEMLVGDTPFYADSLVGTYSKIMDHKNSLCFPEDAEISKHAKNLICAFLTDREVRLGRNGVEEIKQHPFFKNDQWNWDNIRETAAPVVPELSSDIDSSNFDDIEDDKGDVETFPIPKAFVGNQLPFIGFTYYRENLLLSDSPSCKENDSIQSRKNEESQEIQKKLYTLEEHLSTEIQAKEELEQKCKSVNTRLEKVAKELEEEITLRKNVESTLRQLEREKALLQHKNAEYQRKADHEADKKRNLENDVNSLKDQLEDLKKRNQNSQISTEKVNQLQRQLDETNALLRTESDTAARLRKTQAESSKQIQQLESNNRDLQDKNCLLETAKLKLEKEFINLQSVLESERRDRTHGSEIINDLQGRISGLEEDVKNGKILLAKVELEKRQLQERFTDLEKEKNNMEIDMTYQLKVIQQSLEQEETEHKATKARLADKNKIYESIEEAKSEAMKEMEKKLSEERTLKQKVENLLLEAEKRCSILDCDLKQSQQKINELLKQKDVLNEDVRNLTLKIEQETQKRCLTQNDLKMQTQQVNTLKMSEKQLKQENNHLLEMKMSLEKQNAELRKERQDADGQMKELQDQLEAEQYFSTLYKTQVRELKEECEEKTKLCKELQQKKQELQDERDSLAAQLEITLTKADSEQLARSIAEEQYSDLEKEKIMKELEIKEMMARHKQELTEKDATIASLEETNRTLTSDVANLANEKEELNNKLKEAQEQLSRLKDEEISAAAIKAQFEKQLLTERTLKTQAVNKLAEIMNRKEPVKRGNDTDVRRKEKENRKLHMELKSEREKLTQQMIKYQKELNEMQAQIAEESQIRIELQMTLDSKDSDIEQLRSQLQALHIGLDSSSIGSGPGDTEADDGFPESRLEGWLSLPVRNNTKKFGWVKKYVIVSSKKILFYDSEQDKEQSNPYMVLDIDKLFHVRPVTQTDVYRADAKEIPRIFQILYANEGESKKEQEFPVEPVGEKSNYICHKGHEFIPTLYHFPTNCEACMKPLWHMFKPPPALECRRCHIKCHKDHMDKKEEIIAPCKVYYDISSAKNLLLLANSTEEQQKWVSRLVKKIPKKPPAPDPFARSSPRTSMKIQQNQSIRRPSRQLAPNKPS

ROCK-2 induction by TNF [4]: completely abolished | TNF-induced CHR binding activity ([5]; nuclear extracts from EC co-treated with TNF and Y27632): significantly reduced
Molecule: C[C@@H](N)[C@H]1CC[C@H](C(=O)Nc2ccncc2)CC1 [Y27632]
TNF-induced ezrin phosphorylation [1]: completely inhibited | TNF-mediated inhibition of cyclin A mRNA expression [2]: reversed | ezrin/TNF mediated inhibition of EC proliferation ([3]; EC transfected with wtEzrin, treated with TNF, increasing doses of Y27632): dose dependently reversed | inhibitory effect of TNF on EC proliferation ([3]; treatment of EC with Y27632 in the presence of TNF): partially abrogated

Molecule: C[C@@H]1C[C@@H]([C@H](O)CC2CC(=O)NC(=O)C2)C(=O)[C@@H](C)C1 [cycloheximide]
induction of 84-kDa protein by TNF [6]: failed to induce the protein

CHR-binding activity of ezrin-immunodepleted TNF-extract ([5]; recombinant ezrin added back to the depleted TNF-extract): significantly increased
Molecule: Recombinant ezrin: Recombinant human ezrin protein (GST-ezrin)
complex formation with CHR oligonucleotides [7]: formed complex

B1: recombinant-DP1 protein: control recombinant-DP1 protein used in EMSA (protein, UniProt Q14186 1-410, looked up)
Transcription factor Dp-1: MAKDAGLIEANGELKVFIDQNLSPGKGVVSLVAVHPSTVNPLGKQLLPKTFGQSNVNIAQQVVIGTPQRPAASNTLVVGSPHTPSTHFASQNQPSDSSPWSAGKRNRKGEKNGKGLRHFSMKVCEKVQRKGTTSYNEVADELVAEFSAADNHILPNESAYDQKNIRRRVYDALNVLMAMNIISKEKKEIKWIGLPTNSAQECQNLEVERQRRLERIKQKQSQLQELILQQIAFKNLVQRNRHAEQQASRPPPPNSVIHLPFIIVNTSKKTVIDCSISNDKFEYLFNFDNTFEIHDDIEVLKRMGMACGLESGSCSAEDLKMARSLVPKALEPYVTEMAQGTVGGVFITTAGSTSNGTRFSASDLTNGADGMLATSSNGSQYSGSRVETPVSYVGEDDEEDDDFNENDEDD
complex formation with CHR oligonucleotides [7]: did not form the complex
